In the supplement of paper PMC10307832:

Key:
Assay in all cases: relative viability (nuclei count vs DMSO), 5 days (fraction); higher = more cells survive
[1] = system: NCI-H3122
In short: (§1)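 Each reported value is a median over duplicate plates. It expresses relative viability: treated-well nuclei count divided by vehicle-well nuclei count. Lung cancer cell lines in 1536-well plates were dosed by pin tool a day after seeding, alone with one drug or with a fixed anchor-drug dose plus five library-drug doses (not always all listed) in √10 steps, and nuclei were counted after 5 days.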

[2] = system: NCI-H596
In short: as §1

[3] = system: PC-3 [JPC-3]
In short: as §1

[4] = system: HARA
In short: as §1

[5] = system: LK-2
In short: as §1

[6] = system: NCI-H2228
In short: as §1

[7] = system: A-427
In short: as §1

[8] = system: SK-MES-1
In short: as §1

[9] = system: HOP-62
In short: as §1

[10] = system: LXF-289
In short: as §1

[11] = system: SW 900
In short: as §1

[12] = system: NCI-H522
In short: as §1

[13] = system: NCI-H1993
In short: as §1

[14] = system: NCI-H322M
In short: as §1

[15] = system: EMC-BAC-2
In short: as §1

[16] = system: NCI-H1944
In short: as §1

[17] = system: NCI-H727
In short: as §1

[18] = system: NCI-H2009
In short: as §1

[19] = system: NCI-H2170
In short: as §1

[20] = system: SW 1573
In short: as §1

[21] = system: ABC-1
In short: as §1

[22] = system: NCI-H1792
In short: as §1

With `COc1cc2nccc(Oc3ccc(NC(=O)Nc4cc(C)on4)c(Cl)c3)c2cc1OC` [Tivozanib] + CCNC(=O)c1noc(-c2cc(C(C)C)c(O)cc2O)c1-c1ccc(CN2CCOCC2)cc1 [Luminespib] (partner 0.01 µM) the relative viability ([1]; first compound 0.005 µM) was 0.0849, the relative viability ([1]; first compound 0.01581 µM) was 0.104 and the relative viability ([1]; first compound 0.05 µM) was 0.0902. The relative viability ([1]; first compound 0.1581 µM) was 0.0689, the relative viability ([1]; first compound 0.5 µM) was 0.0976 and the relative viability ([2]; first compound 0.005 µM) was 0.771. It also gave a relative viability ([2]; first compound 0.01581 µM) of 1.04, a relative viability ([2]; first compound 0.05 µM) of 1.04 and a relative viability ([2]; first compound 0.5 µM) of 0.858. The relative viability ([3]; first compound 0.005 µM) was 0.744, the relative viability ([3]; first compound 0.01581 µM) was 0.636 and the relative viability ([3]; first compound 0.05 µM) was 0.751. It also gave a relative viability ([3]; first compound 0.1581 µM) of 0.716, a relative viability ([3]; first compound 0.5 µM) of 0.766 and a relative viability ([4]; first compound 0.005 µM) of 0.686. The relative viability ([4]; first compound 0.01581 µM) was 0.795, the relative viability ([4]; first compound 0.05 µM) was 0.75 and the relative viability ([4]; first compound 0.1581 µM) was 0.964. It also gave a relative viability ([4]; first compound 0.5 µM) of 0.689, a relative viability ([5]; first compound 0.005 µM) of 0.179 and a relative viability ([5]; first compound 0.01581 µM) of 0.225. It also gave a relative viability ([5]; first compound 0.05 µM) of 0.184, a relative viability ([5]; first compound 0.1581 µM) of 0.233 and a relative viability ([5]; first compound 0.5 µM) of 0.206. It also gave a relative viability ([6]; first compound 0.005 µM) of 0.0873, a relative viability ([6]; first compound 0.01581 µM) of 0.219 and a relative viability ([6]; first compound 0.05 µM) of 0.112. It also gave a relative viability ([6]; first compound 0.1581 µM) of 0.185, a relative viability ([6]; first compound 0.5 µM) of 0.109 and a relative viability ([7]; first compound 0.005 µM) of 1.09. The relative viability ([7]; first compound 0.01581 µM) was 0.902, the relative viability ([7]; first compound 0.05 µM) was 1.02 and the relative viability ([7]; first compound 0.1581 µM) was 0.836. It also gave a relative viability ([7]; first compound 0.5 µM) of 1.01, a relative viability ([8]; first compound 0.005 µM) of 0.737 and a relative viability ([8]; first compound 0.01581 µM) of 0.832. For the same molecule, the relative viability ([8]; first compound 0.05 µM) was 0.773, the relative viability ([8]; first compound 0.1581 µM) was 0.837 and the relative viability ([8]; first compound 0.5 µM) was 0.807. The relative viability ([9]; first compound 0.005 µM) was 0.857, the relative viability ([9]; first compound 0.01581 µM) was 0.961 and the relative viability ([9]; first compound 0.05 µM) was 0.894. For the same molecule, the relative viability ([9]; first compound 0.1581 µM) was 0.932, the relative viability ([9]; first compound 0.5 µM) was 0.918 and the relative viability ([10]; first compound 0.005 µM) was 0.582. The relative viability ([10]; first compound 0.01581 µM) was 0.611, the relative viability ([10]; first compound 0.05 µM) was 0.641 and the relative viability ([10]; first compound 0.1581 µM) was 0.689. For the same molecule, the relative viability ([10]; first compound 0.5 µM) was 0.773, the relative viability ([11]; first compound 0.005 µM) was 0.174 and the relative viability ([11]; first compound 0.01581 µM) was 0.186. The relative viability ([11]; first compound 0.05 µM) was 0.184, the relative viability ([11]; first compound 0.1581 µM) was 0.167 and the relative viability ([11]; first compound 0.5 µM) was 0.172. The relative viability ([12]; first compound 0.005 µM) was 0.903, the relative viability ([12]; first compound 0.01581 µM) was 1.01 and the relative viability ([12]; first compound 0.05 µM) was 1.03. For the same molecule, the relative viability ([12]; first compound 0.1581 µM) was 1.16, the relative viability ([12]; first compound 0.5 µM) was 1.22 and the relative viability ([13]; first compound 0.005 µM) was 0.783. For the same molecule, the relative viability ([13]; first compound 0.01581 µM) was 0.741, the relative viability ([13]; first compound 0.05 µM) was 0.955 and the relative viability ([13]; first compound 0.1581 µM) was 0.753. For the same molecule, the relative viability ([13]; first compound 0.5 µM) was 0.825, the relative viability ([14]; first compound 0.005 µM) was 0.797 and the relative viability ([14]; first compound 0.01581 µM) was 0.882. It also gave a relative viability ([14]; first compound 0.05 µM) of 0.958, a relative viability ([14]; first compound 0.1581 µM) of 0.694 and a relative viability ([14]; first compound 0.5 µM) of 0.965. It also gave a relative viability ([15]; first compound 0.005 µM) of 1.13, a relative viability ([15]; first compound 0.01581 µM) of 1.18 and a relative viability ([15]; first compound 0.05 µM) of 1.26. For the same molecule, the relative viability ([15]; first compound 0.1581 µM) was 1.13, the relative viability ([15]; first compound 0.5 µM) was 1.16 and the relative viability ([16]; first compound 0.005 µM) was 0.691. For the same molecule, the relative viability ([16]; first compound 0.01581 µM) was 0.83, the relative viability ([16]; first compound 0.05 µM) was 0.732 and the relative viability ([16]; first compound 0.1581 µM) was 0.625. The relative viability ([16]; first compound 0.5 µM) was 0.818, the relative viability ([17]; first compound 0.005 µM) was 0.349 and the relative viability ([17]; first compound 0.01581 µM) was 0.59. The relative viability ([17]; first compound 0.05 µM) was 0.468, the relative viability ([17]; first compound 0.1581 µM) was 0.528 and the relative viability ([17]; first compound 0.5 µM) was 0.609. The relative viability ([18]; first compound 0.005 µM) was 1.04, the relative viability ([18]; first compound 0.01581 µM) was 1.01 and the relative viability ([18]; first compound 0.05 µM) was 0.973. For the same molecule, the relative viability ([18]; first compound 0.1581 µM) was 1.04, the relative viability ([18]; first compound 0.5 µM) was 0.984 and the relative viability ([19]; first compound 0.005 µM) was 0.711. It also gave a relative viability ([19]; first compound 0.01581 µM) of 0.606, a relative viability ([19]; first compound 0.05 µM) of 0.661 and a relative viability ([19]; first compound 0.1581 µM) of 0.304. It also gave a relative viability ([19]; first compound 0.5 µM) of 0.907, a relative viability ([20]; first compound 0.005 µM) of 0.644 and a relative viability ([20]; first compound 0.01581 µM) of 0.224. The relative viability ([20]; first compound 0.05 µM) was 0.248, the relative viability ([20]; first compound 0.1581 µM) was 0.226 and the relative viability ([20]; first compound 0.5 µM) was 0.343. For the same molecule, the relative viability ([21]; first compound 0.005 µM) was 0.692, the relative viability ([21]; first compound 0.05 µM) was 0.429 and the relative viability ([21]; first compound 0.1581 µM) was 0.389. For the same molecule, the relative viability ([21]; first compound 0.5 µM) was 0.215, the relative viability ([22]; first compound 0.005 µM) was 0.457 and the relative viability ([22]; first compound 0.01581 µM) was 0.344. It also gave a relative viability ([22]; first compound 0.05 µM) of 0.598, a relative viability ([22]; first compound 0.1581 µM) of 0.415 and a relative viability ([22]; first compound 0.5 µM) of 0.551.
